# Assay results from ChEMBL document CHEMBL3044624, “Cycloate, an inhibitor of fatty acid elongase, modulates the metabolism of very-long-side-chain alkylresorcinols in rye seedlings” (Pest Manag Sci, 2009).
# Tests used:
# [1] = test system: Secale cereale; experiment: Change in alkylresorcinol homologue composition in dry shoots of etiolated Secale cereale (rye) seedlings grown from compound-treated seeds at 15 +/-2 degC assessed as C17:1 content at 46 uM by GC/EI-MS analysis (reference value: 0.51 mg/kg dry weight); format: functional
# [2] = test system: Secale cereale; experiment: Toxicity against etiolated Secale cereale (rye) seedlings assessed as dry biomass of seedling grown at 29 +/-2 degC at 46 uM measured at 5 days after compound-treated seed germination (reference value: 2.13 +/-0.03 g); format: organism-based; conditions: in vivo, 120 h
# [3] = test system: Secale cereale; experiment: Change in alkylresorcinol homologue composition in dry shoots of green Secale cereale (rye) seedlings grown from compound-treated seeds at 22 +/-2 degC assessed as C23:0 content at 46 uM by GC/EI-MS analysis (reference value: 0.54 mg/kg dry weight); format: functional
# [4] = test system: Secale cereale; experiment: Change in alkylresorcinol homologue composition in dry shoots of green Secale cereale (rye) seedlings grown from compound-treated seeds at 15 +/-2 degC assessed as C21:1 content at 46 uM by GC/EI-MS analysis; format: functional
# [5] = test system: Secale cereale; experiment: Toxicity against green Secale cereale (rye) seedlings assessed as dry biomass of seedling grown at 29 +/-2 degC at 46 uM measured at 5 days after compound-treated seed germination (reference value: 2.32 +/-0.05 g); format: organism-based; conditions: in vivo, 120 h
# [6] = test system: Secale cereale; experiment: Toxicity against etiolated Secale cereale (rye) seedlings assessed as fresh biomass of seedling grown at 15 +/-2 degC at 46 uM measured at 5 days after compound-treated seed germination (reference value: 7.63 +/-0.12 g); format: organism-based; conditions: in vivo, 120 h
# [7] = test system: Secale cereale; experiment: Change in alkylresorcinol homologue composition in dry shoots of green Secale cereale (rye) seedlings grown from compound-treated seeds at 29 +/-2 degC assessed as C15:0 content at 46 uM by GC/EI-MS analysis (reference value: 0.11 mg/kg dry weight); format: functional
# [8] = test system: Secale cereale; experiment: Change in alkylresorcinol homologue composition in dry shoots of green Secale cereale (rye) seedlings grown from compound-treated seeds at 15 +/-2 degC assessed as C23:0 content at 46 uM by GC/EI-MS analysis (reference value: 0.59 mg/kg dry weight); format: functional
# [9] = test system: Secale cereale; experiment: Change in alkylresorcinol homologue composition in dry shoots of etiolated Secale cereale (rye) seedlings grown from compound-treated seeds at 22 +/-2 degC assessed as C17:1 content at 46 uM by GC/EI-MS analysis (reference value: 0.11 mg/kg dry weight); format: functional
# [10] = test system: Secale cereale; experiment: Change in alkylresorcinol content in dry shoots of etiolated Secale cereale (rye) seedlings grown from compound-treated seeds at 15 +/-2 degC at 46 uM by thin layer chromatography (reference value: 8.13 +/-0.14 mg/kg dry weight); format: functional
# [11] = test system: Secale cereale; experiment: Change in alkylresorcinol homologue composition in dry shoots of green Secale cereale (rye) seedlings grown from compound-treated seeds at 29 +/-2 degC assessed as C25:0 content at 46 uM by GC/EI-MS analysis (reference value: 0.03 mg/kg dry weight); format: functional
# [12] = test system: Secale cereale; experiment: Change in alkylresorcinol homologue composition in dry shoots of etiolated Secale cereale (rye) seedlings grown from compound-treated seeds at 29 +/-2 degC assessed as C21:0 content at 46 uM by GC/EI-MS analysis (reference value: 0.96 mg/kg dry weight); format: functional
# [13] = test system: Secale cereale; experiment: Change in alkylresorcinol homologue composition in dry shoots of green Secale cereale (rye) seedlings grown from compound-treated seeds at 15 +/-2 degC assessed as C19:0 content at 46 uM by GC/EI-MS analysis (reference value: 0.99 mg/kg dry weight); format: functional
# [14] = test system: Secale cereale; experiment: Change in alkylresorcinol homologue composition in dry shoots of green Secale cereale (rye) seedlings grown from compound-treated seeds at 29 +/-2 degC assessed as C19:1 content at 46 uM by GC/EI-MS analysis (Rvb =0.17 mg/kg dry weight); format: functional
# [15] = test system: Secale cereale; experiment: Change in alkylresorcinol content in dry shoots of etiolated Secale cereale (rye) seedlings grown from compound-treated seeds at 22 +/-2 degC at 46 uM by thin layer chromatography (reference value: 6.22 +/-0.09 mg/kg dry weight); format: functional
# [16] = test system: Secale cereale; experiment: Change in alkylresorcinol homologue composition in dry shoots of etiolated Secale cereale (rye) seedlings grown from compound-treated seeds at 29 +/-2 degC assessed as C23:0 content at 46 uM by GC/EI-MS analysis (reference value: 0.18 mg/kg dry weight); format: functional
# [17] = test system: Secale cereale; experiment: Toxicity against green Secale cereale (rye) seedlings assessed as fresh biomass of seedling grown at 29 +/-2 degC at 46 uM measured at 5 days after compound-treated seed germination (reference value: 16.33 +/-0.24 g); format: organism-based; conditions: in vivo, 120 h
# [18] = test system: Secale cereale; experiment: Change in alkylresorcinol homologue composition in dry shoots of green Secale cereale (rye) seedlings grown from compound-treated seeds at 22 +/-2 degC assessed as C25:0 content at 46 uM by GC/EI-MS analysis (reference value: 0.11 mg/kg dry weight); format: functional
# [19] = test system: Secale cereale; experiment: Change in alkylresorcinol homologue composition in dry shoots of etiolated Secale cereale (rye) seedlings grown from compound-treated seeds at 15 +/-2 degC assessed as C15:0 content at 46 uM by GC/EI-MS analysis (reference value: 0.43 mg/kg dry weight); format: functional
# [20] = test system: Secale cereale; experiment: Toxicity against green Secale cereale (rye) seedlings assessed as dry biomass of seedling grown at 15 +/-2 degC at 46 uM measured at 5 days after compound-treated seed germination (reference value: 1.64 +/-0.03 g); format: organism-based; conditions: in vivo, 120 h
# [21] = test system: Secale cereale; experiment: Change in alkylresorcinol homologue composition in dry shoots of green Secale cereale (rye) seedlings grown from compound-treated seeds at 29 +/-2 degC assessed as C17:1 content at 46 uM by GC/EI-MS analysis (reference value: 0.08 mg/kg dry weight); format: functional
# [22] = test system: Secale cereale; experiment: Change in alkylresorcinol homologue composition in dry shoots of etiolated Secale cereale (rye) seedlings grown from compound-treated seeds at 22 +/-2 degC assessed as C25:0 content at 46 uM by GC/EI-MS analysis (reference value: 0.08 mg/kg dry weight); format: functional
# [23] = test system: Secale cereale; experiment: Change in alkylresorcinol homologue composition in dry shoots of etiolated Secale cereale (rye) seedlings grown from compound-treated seeds at 29 +/-2 degC assessed as C17:1 content at 46 uM by GC/EI-MS analysis (reference value: 0.05 mg/kg dry weight); format: functional
# [24] = test system: Secale cereale; experiment: Change in alkylresorcinol homologue composition in dry shoots of etiolated Secale cereale (rye) seedlings grown from compound-treated seeds at 15 +/-2 degC assessed as C23:0 content at 46 uM by GC/EI-MS analysis (reference value: 0.33 mg/kg dry weight); format: functional
# [25] = test system: Secale cereale; experiment: Change in alkylresorcinol homologue composition in dry shoots of etiolated Secale cereale (rye) seedlings grown from compound-treated seeds at 15 +/-2 degC assessed as C21:0 content at 46 uM by GC/EI-MS analysis (reference value: 0.78 mg/kg dry weight); format: functional
# [26] = test system: Secale cereale; experiment: Change in alkylresorcinol homologue composition in dry shoots of green Secale cereale (rye) seedlings grown from compound-treated seeds at 15 +/-2 degC assessed as C21:0 content at 46 uM by GC/EI-MS analysis (reference value: 0.41 mg/kg dry weight); format: functional
compound,measurement,setting,value
CCSC(=O)N(CC)C1CCCCC1 [CYCLOATE],Activity,[1],1.25 mg/kg
same,Activity,[2],2.32 g
same,Activity,[3],0.13 mg/kg
same,Activity,[4],0.19 mg/kg
same,Activity,[5],1.64 g
same,Activity,[6],4.41 g
same,Activity,[7],0.53 mg/kg
same,Activity,[8],0.17 mg/kg
same,Activity,[9],0.11 mg/kg
same,Activity,[10],13.11 mg/kg
same,Activity,[11],0.2 mg/kg
same,Activity,[12],1.2 mg/kg
same,Activity,[13],1.45 mg/kg
same,Activity,[14],1.09 mg/kg
same,Activity,[15],2.94 mg/kg
same,Activity,[16],0.34 mg/kg
same,Activity,[17],7.02 g
same,Activity,[18],0.07 mg/kg
same,Activity,[19],1.01 mg/kg
same,Activity,[20],1.12 g
same,Activity,[21],0.75 mg/kg
same,Activity,[22],0.06 mg/kg
same,Activity,[23],0.98 mg/kg
same,Activity,[24],0.17 mg/kg
same,Activity,[25],0.69 mg/kg
same,Activity,[26],0.55 mg/kg
